Data from ChEMBL document CHEMBL1681696, “Discovery of benzimidazole pyrrolidinyl amides as prolylcarboxypeptidase inhibitors” (Bioorg Med Chem Lett, 2011).
Active and inactive are the calls of the source. The calls are words filed in the database; no cut-off is given here.

Key:
[1] = biological target: T1, Lysosomal Pro-X carboxypeptidase (Mus musculus, UniProt Q7TMR0); assay: Inhibition of PrCP in mouse plasma assessed as angiotensin 3 cleavage; type: cell-free
T1 sequence (Q7TMR0 whole entry): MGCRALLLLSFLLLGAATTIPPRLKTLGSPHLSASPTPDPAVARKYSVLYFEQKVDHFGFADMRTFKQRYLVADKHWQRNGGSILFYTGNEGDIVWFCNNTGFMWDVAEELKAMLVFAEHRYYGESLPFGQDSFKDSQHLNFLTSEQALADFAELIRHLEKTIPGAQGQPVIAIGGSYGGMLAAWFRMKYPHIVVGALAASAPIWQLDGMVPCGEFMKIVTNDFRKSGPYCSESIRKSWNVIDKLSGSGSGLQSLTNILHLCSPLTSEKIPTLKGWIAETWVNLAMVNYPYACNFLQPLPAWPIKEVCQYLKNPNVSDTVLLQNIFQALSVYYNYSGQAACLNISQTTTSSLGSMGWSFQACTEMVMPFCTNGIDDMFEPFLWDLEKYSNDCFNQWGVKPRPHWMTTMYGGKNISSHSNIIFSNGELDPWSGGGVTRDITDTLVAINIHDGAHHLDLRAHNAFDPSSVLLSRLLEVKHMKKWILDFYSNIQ

[2] = biological target: T2, Lysosomal Pro-X carboxypeptidase (Homo sapiens) (UniProt P42785); assay: Inhibition of human PrCP at 5 uM
T2 sequence (whole entry): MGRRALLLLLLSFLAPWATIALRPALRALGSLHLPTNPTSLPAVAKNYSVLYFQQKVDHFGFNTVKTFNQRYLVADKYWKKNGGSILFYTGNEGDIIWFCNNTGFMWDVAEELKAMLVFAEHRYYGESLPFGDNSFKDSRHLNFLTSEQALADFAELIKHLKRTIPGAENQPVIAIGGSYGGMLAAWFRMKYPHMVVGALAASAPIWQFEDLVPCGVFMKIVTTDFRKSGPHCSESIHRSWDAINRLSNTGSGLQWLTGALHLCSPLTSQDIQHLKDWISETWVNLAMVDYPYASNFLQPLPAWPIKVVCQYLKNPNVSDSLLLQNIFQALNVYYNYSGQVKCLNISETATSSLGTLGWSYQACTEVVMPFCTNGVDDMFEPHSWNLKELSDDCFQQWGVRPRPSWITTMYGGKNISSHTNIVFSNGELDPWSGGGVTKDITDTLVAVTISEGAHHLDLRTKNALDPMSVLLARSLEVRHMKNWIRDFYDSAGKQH

[3] = biological target: T1, Lysosomal Pro-X carboxypeptidase; assay: Inhibition of mouse PrCP
[4] = Oral bioavailability in mouse at 2 mg/kg; type: ADME, organism-based; settings: in vivo
[5] = Clearance in mouse at 1 mg/kg, iv and 2 mg/kg, po; type: ADME, organism-based; settings: in vivo
[6] = Volume of distribution at steady state in mouse at 1 mg/kg, iv and 2 mg/kg, po; type: ADME, organism-based; settings: in vivo, read-out: Vdss
[7] = Half life in mouse at 1 mg/kg, iv and 2 mg/kg, po; type: ADME, organism-based; settings: in vivo
[8] = Drug level in wild type CF1 mouse brain at 0.5 mg/kg after 0.5 hrs; type: ADME, organism-based; set-up: dose 0.5 mg/kg; settings: read-out: Drug uptake
[9] = Drug level in wild type CF1 mouse plasma at 0.5 mg/kg after 0.5 hrs; type: ADME, organism-based; set-up: dose 0.5 mg/kg; settings: read-out: Drug uptake
[10] = Ratio of drug level in brain to plasma in wild type CF1 mouse at 0.5 mg/kg after 0.5 hrs; type: ADME, organism-based; set-up: dose 0.5 mg/kg; settings: read-out: BPR
[11] = Drug level in wild type CF1 mouse brain at 0.5 mg/kg after 4 hrs; type: ADME, organism-based; set-up: dose 0.5 mg/kg; settings: read-out: Drug uptake
[12] = Drug level in wild type CF1 mouse plasma at 0.5 mg/kg after 4 hrs; type: ADME, organism-based; set-up: dose 0.5 mg/kg; settings: read-out: Drug uptake
[13] = Ratio of drug level in brain to plasma in wild type CF1 mouse at 0.5 mg/kg after 4 hrs; type: ADME, organism-based; set-up: dose 0.5 mg/kg; settings: read-out: BPR
[14] = Drug level in mdr1a deficient mouse brain at 0.5 mg/kg after 0.5 hrs; type: ADME, organism-based; set-up: dose 0.5 mg/kg; settings: read-out: Drug uptake
[15] = Drug level in mdr1a deficient mouse plasma at 0.5 mg/kg after 0.5 hrs; type: ADME, organism-based; set-up: dose 0.5 mg/kg; settings: read-out: Drug uptake
[16] = Ratio of drug level in brain to plasma in mdr1a deficient mouse at 0.5 mg/kg after 0.5 hrs; type: ADME, organism-based; set-up: dose 0.5 mg/kg; settings: read-out: BPR
[17] = Drug level in mdr1a deficient mouse brain at 0.5 mg/kg after 4 hrs; type: ADME, organism-based; set-up: dose 0.5 mg/kg; settings: read-out: Drug uptake
[18] = Drug level in mdr1a deficient mouse plasma at 0.5 mg/kg after 4 hrs; type: ADME, organism-based; set-up: dose 0.5 mg/kg; settings: read-out: Drug uptake
[19] = Ratio of drug level in brain to plasma in mdr1a deficient mouse at 0.5 mg/kg after 4 hrs; type: ADME, organism-based; set-up: dose 0.5 mg/kg; settings: read-out: BPR
[20] = test system: Mus musculus; assay: Inhibition of ex vivo PrCP engagement in eDIO mouse plasma at 60 mg/kg, sc by continuous infusion pump for 7 days; type: functional; settings: 168 h, route subcutaneous
[21] = test system: Mus musculus; assay: Antiobesity activity in PrCP knockout mouse assessed as reduction of food intake at 12 mg/kg sc by continuous infusion pump qd for 7 days; type: functional, organism-based; set-up: dose 12 mg/kg
[22] = test system: Mus musculus; assay: Inhibition of ex vivo PrCP engagement in eDIO mouse plasma at 60 mg/kg, sc by continuous infusion pump for 7 days additionally treated 2 uM of compound; type: functional; settings: 168 h, route subcutaneous
[23] = Plasma concentration in eDIO mouse at 10 to 60 mg/kg, sc by continuous infusion pump for 7 days; type: ADME, organism-based; set-up: dose 10-60 mg/kg, route subcutaneous
[24] = test system: Mus musculus; assay: Antiobesity activity in eDIO mouse assessed as reduction of food intake at 12 mg/kg sc by continuous infusion pump qd for 7 days; type: functional, organism-based; set-up: dose 12 mg/kg
[25] = test system: Mus musculus; assay: Antiobesity activity in eDIO mouse assessed as reduction of body weight at 12 mg/kg sc by continuous infusion pump qd for 7 days; type: functional, organism-based; set-up: dose 12 mg/kg
[26] = test system: Mus musculus; assay: Antiobesity activity in PrCP knockout mouse assessed as reduction of body weight at 12 mg/kg sc by continuous infusion pump qd for 7 days; type: functional, organism-based; set-up: dose 12 mg/kg
[27] = Plasma concentration in eDIO mouse at 12 mg/kg sc by continuous infusion pump qd for 7 days; type: ADME, organism-based; set-up: dose 12 mg/kg, route subcutaneous
[28] = Plasma concentration in PrCP knockout mouse at 12 mg/kg sc by continuous infusion pump qd for 7 days; type: ADME, organism-based; set-up: dose 12 mg/kg, route subcutaneous
[29] = organism: Mus musculus; settings: Plasma, 10 mg/kg
Description: Inhibition of ex vivo PrCP engagement in eDIO mouse plasma at 10 mg/kg, sc by continuous infusion pump for 7 days

[30] = organism: Mus musculus; settings: Plasma, 30 mg/kg
Description: Inhibition of ex vivo PrCP engagement in eDIO mouse plasma at 30 mg/kg, sc by continuous infusion pump for 7 days

For `O=C(CCN1CCC(c2ccccc2)CC1)N1CCC[C@H]1c1nc2cc(Cl)c(Cl)cc2[nH]1`, the IC50 [1] was > 10000 nM.

For `O=C(O)c1ccc(-c2noc(C3CCN(CCC(=O)N4CCC[C@H]4c4nc5cc(Cl)c(Cl)cc5[nH]4)CC3)n2)cc1`, the IC50 [1] was 241 nM.

In the case of `O=C(CCN1CCC(c2ccccc2)C1)N1CCC[C@H]1c1nc2cc(Cl)c(Cl)cc2[nH]1` (stereo partly drawn), the inhibition [2] is reported as 93%.

Work on `CS(=O)(=O)c1ccc(-c2noc(C3CCN(CCC(=O)N4CCC[C@H]4c4nc5cc(Cl)c(Cl)cc5[nH]4)CC3)n2)cc1` yielded an IC50 [3] of 0.41 nM, an IC50 [1] of 10 nM and a bioavailability [4] of 14%. It also gave a clearance [5] of 54 mL/min/kg, a Vd [6] of 7.7 L/kg and a half-life [7] of 2.2 h.

With `O=C(CCN1CCC(c2cc(-c3ccncc3)[nH]n2)CC1)N1CCC[C@H]1c1nc2cc(Cl)c(Cl)cc2[nH]1` the IC50 [1] was 485 nM.

For `O=C(CCN1CCC(c2nc(-c3ncccn3)no2)CC1)N1CCC[C@H]1c1nc2cc(Cl)c(Cl)cc2[nH]1`, the IC50 [1] was 745 nM.

With `O=C(CCN1CCC(c2ccncc2)CC1)N1CCC[C@H]1c1nc2cc(Cl)c(Cl)cc2[nH]1` the IC50 [1] was 430 nM.

`Cn1nc(C2CCN(CCC(=O)N3CCC[C@H]3c3nc4cc(Cl)c(Cl)cc4[nH]3)CC2)cc1-c1cccnc1` showed an IC50 [1] of 39 nM.

In the case of `O=C(CCN1CCC(c2nc(-c3ccncc3)no2)CC1)N1CCC[C@H]1c1nc2cc(Cl)c(Cl)cc2[nH]1`, the IC50 [3] is reported as 0.53 nM, the IC50 [1] is reported as 29 nM and the bioavailability [4] is reported as 8%. It also gave a clearance [5] of 38 mL/min/kg, a Vd [6] of 5.7 L/kg and a half-life [7] of 4.9 h.

`O=C(CCN1CCC(n2ncnn2)CC1)N1CCC[C@H]1c1nc2cc(Cl)c(Cl)cc2[nH]1` gave an IC50 [1] of 2900 nM.

In the case of `CS(=O)(=O)c1ccc(-c2noc(C3CCN(CCC(=O)N4CCC[C@H]4c4nc5cc(Cl)c(Cl)cc5[nH]4)C(=O)C3)n2)cc1` (stereo partly drawn), the IC50 [1] is reported as 425 nM, the bioavailability [4] is reported as 3% and the clearance [5] is reported as 115 mL/min/kg. The Vd [6] was 3 L/kg and the half-life [7] was 1.3 h.

In the case of `O=C(CCN1CCC(c2nc(-c3cccnc3)no2)CC1)N1CCC[C@H]1c1nc2cc(Cl)c(Cl)cc2[nH]1`, the IC50 [1] is reported as 155 nM.

Compound `Cn1nc(C2CCN(CCC(=O)N3CCC[C@H]3c3nc4cc(Cl)c(Cl)cc4[nH]3)CC2)cc1-c1ccncc1` has an IC50 [3] of 0.8 nM, an IC50 [1] of 6.7 nM and a concentration at 0.5 h [8] of 10 nM. It also gave a concentration at 0.5 h [9] of 54 nM, a Kp at 0.5 h [10] of 0.2 and a concentration at 4 h [11] of 4 nM. It also gave a concentration at 4 h [12] of 4.6 nM, a Kp at 4 h [13] of 0.88 and a concentration at 0.5 h [14] of 70 nM. The concentration at 0.5 h [15] was 51 nM, the Kp at 0.5 h [16] was 1.4 and the concentration at 4 h [17] was 54 nM. For the same compound, the concentration at 4 h [18] was 4 nM, the Kp at 4 h [19] was 13 and the inhibition in vivo at 60 mg/kg [20] was 55%. For the same compound, the Activity [21] was “Active”, the inhibition in vivo at 60 mg/kg [22] was 80% and the concentration at 168 h [23] was 90 nM. For the same compound, the Activity [24] was “Active”, the Activity [25] was “Active” and the Activity [26] was “Active”. The concentration at 168 h [27] was 210 nM, the concentration at 168 h [28] was 290 nM and the bioavailability [4] was 4%. For the same compound, the clearance [5] was 65 mL/min/kg, the Vd [6] was 9.4 L/kg and the half-life [7] was 4.1 h. The inhibition [29] was “Active” and the inhibition [30] was “Active”.

With `O=C(CCN1CCC(c2cn[nH]c2)CC1)N1CCC[C@H]1c1nc2cc(Cl)c(Cl)cc2[nH]1` the IC50 [3] was 107 nM.

With `O=C(CCN1CCN(c2ccccc2)CC1)N1CCC[C@H]1c1nc2cc(Cl)c(Cl)cc2[nH]1` the IC50 [1] was > 10000 nM.

`CC(C)(CCCC(=O)N1CCC[C@H]1c1nc2cc(Cl)c(Cl)cc2[nH]1)N1CCC(c2nc(-c3ccccn3)no2)CC1` gave an IC50 [3] of 19 nM, an IC50 [1] of 113 nM and a bioavailability [4] of 3%. It also gave a clearance [5] of 60 mL/min/kg, a Vd [6] of 12 L/kg and a half-life [7] of 3.1 h.

Compound `O=C(CCN1CCC(c2nc(-c3cnccn3)no2)CC1)N1CCC[C@H]1c1nc2cc(Cl)c(Cl)cc2[nH]1` has an IC50 [1] of 435 nM.

In the case of `O=C(CCN1CCC(c2cnccn2)CC1)N1CCC[C@H]1c1nc2cc(Cl)c(Cl)cc2[nH]1`, the IC50 [1] is reported as 8000 nM.

In the case of `O=C(CCN1CCC(c2nc(-c3ccccn3)no2)CC1)N1CCC[C@H]1c1nc2cc(Cl)c(Cl)cc2[nH]1`, the IC50 [3] is reported as 3.5 nM and the IC50 [1] is reported as 173 nM.

In the case of `O=C(CCN1CCC(c2cc[nH]n2)CC1)N1CCC[C@H]1c1nc2cc(Cl)c(Cl)cc2[nH]1`, the IC50 [1] is reported as 290 nM.
